Test results published in ChEMBL document CHEMBL1201862, “PubChem BioAssay data set” (2004).
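Growth conditions: 96-well plates. Treatment: test compound, 48 hours, 5 concentrations. Analysis: linear interpolation between bracketing concentrations; unreached endpoints set to highest concentration. GI50 marks 50% less growth.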 The source made the active and inactive calls. Rule as the data show it: active = GI50 up to about 1.1 µM and inactive = higher.

Experiments:
Test in all cases: growth of human tumour cells (NCI), 48 h
HCC 2998 = tested on: HCC 2998
HCT-116 = tested on: HCT-116
CCRF-CEM = tested on: CCRF-CEM
UACC-257 = tested on: UACC-257
NCI-H226 = tested on: NCI-H226
NCI-H522 = tested on: NCI-H522
HOP-92 = tested on: HOP-92
OVCAR-5 = tested on: OVCAR-5
NCI-H460 = tested on: NCI-H460
EKVX = tested on: EKVX
MDA-MB-435 = tested on: MDA-MB-435
T47D = tested on: T47D
CAKI-1 = tested on: CAKI-1
ACHN = tested on: ACHN
RXF 393 = tested on: RXF 393
SK-MEL-2 = tested on: SK-MEL-2
SK-MEL-5 = tested on: SK-MEL-5
NCI/ADR-RES = tested on: NCI/ADR-RES
BT-549 = tested on: BT-549

Measured: GI50

CC(=O)NC1=C(OS(=O)(=O)c2ccc(C)cc2)CN(C)C1=O
inactive: HCC 2998 2.43 µM | HCT-116 3.15 µM | CCRF-CEM 1.77 µM | UACC-257 2.49 µM | NCI-H226 8.73 µM | NCI-H522 2.82 µM | HOP-92 2.84 µM | OVCAR-5 16.7 µM | NCI-H460 2.37 µM | EKVX 4.84 µM | MDA-MB-435 4.26 µM | T47D 2.12 µM | CAKI-1 3.86 µM | ACHN 3.32 µM | RXF 393 3.3 µM | SK-MEL-2 2.55 µM | SK-MEL-5 4.11 µM | NCI/ADR-RES 3.91 µM | BT-549 3.09 µM

O=[N+]([O-])/C=C/c1c(Cl)cccc1Cl
inactive: HCC 2998 3.45 µM | HCT-116 2.7 µM | CCRF-CEM 1.23 µM | UACC-257 3.09 µM | NCI-H226 10 µM | NCI-H522 1.61 µM | HOP-92 4.9 µM | OVCAR-5 8.95 µM | NCI-H460 2.61 µM | EKVX 5.65 µM | MDA-MB-435 1.77 µM | T47D 2.06 µM | CAKI-1 3.66 µM | ACHN 2.48 µM | RXF 393 10.4 µM | SK-MEL-2 5.94 µM | SK-MEL-5 3.13 µM | NCI/ADR-RES 1.96 µM | BT-549 2.01 µM

Cn1c(=O)c2c(nc3n2CCCC(=O)N3CCCCl)n(C)c1=O
inactive: HCC 2998 > 100 µM | HCT-116 > 100 µM | CCRF-CEM > 100 µM | UACC-257 > 100 µM | NCI-H226 > 100 µM | NCI-H522 > 100 µM | HOP-92 > 100 µM | OVCAR-5 > 100 µM | NCI-H460 > 100 µM | EKVX > 100 µM | MDA-MB-435 > 100 µM | T47D > 100 µM | CAKI-1 > 100 µM | ACHN > 100 µM | RXF 393 > 100 µM | SK-MEL-2 > 100 µM | SK-MEL-5 > 100 µM | NCI/ADR-RES > 100 µM | BT-549 > 100 µM

CCN(CC)C(=S)SS(=O)(=O)c1cccc(N)c1
inactive: HCC 2998 > 100 µM | HCT-116 > 100 µM | UACC-257 > 100 µM | NCI-H226 > 100 µM | NCI-H522 > 100 µM | HOP-92 > 100 µM | OVCAR-5 > 100 µM | NCI-H460 > 100 µM | EKVX > 100 µM | MDA-MB-435 > 100 µM | T47D > 100 µM | CAKI-1 > 100 µM | ACHN > 100 µM | RXF 393 > 100 µM | SK-MEL-2 > 100 µM | SK-MEL-5 > 100 µM | NCI/ADR-RES > 100 µM | BT-549 > 100 µM

COc1cc(C[C@@]2(C)[C@@H]3CCC[C@H](CO)[C@@]3(C)CC[C@@H]2C)c(Cl)c(OC)c1
inactive: HCC 2998 16.1 µM | HCT-116 12.2 µM | CCRF-CEM 29.4 µM | UACC-257 18.7 µM | NCI-H226 15.8 µM | NCI-H522 14.7 µM | HOP-92 14.5 µM | OVCAR-5 18.3 µM | NCI-H460 16.8 µM | EKVX 14.3 µM | MDA-MB-435 13.7 µM | T47D 9.53 µM | CAKI-1 16.2 µM | ACHN 16 µM | RXF 393 11.6 µM | SK-MEL-2 16.8 µM | SK-MEL-5 17 µM | NCI/ADR-RES 15.2 µM | BT-549 17.6 µM

C/C(=C/CO[Si](C)(C)C(C)(C)C)C(=O)N(C)c1ccccc1I
inactive: HCC 2998 14.3 µM | HCT-116 13 µM | CCRF-CEM 15.2 µM | UACC-257 13.3 µM | NCI-H226 16.4 µM | NCI-H522 15.6 µM | HOP-92 10.5 µM | OVCAR-5 14.2 µM | NCI-H460 14.7 µM | EKVX 15 µM | MDA-MB-435 17.2 µM | T47D 14.8 µM | CAKI-1 15.6 µM | ACHN 17.3 µM | RXF 393 16.6 µM | SK-MEL-2 15.7 µM | SK-MEL-5 15.4 µM | NCI/ADR-RES 17.4 µM | BT-549 20.8 µM

CCC1(C(=O)OC(C)(C)C)OC12C(C)CCCC2C (centres undefined)
inactive: HCC 2998 18.3 µM | HCT-116 52.8 µM | CCRF-CEM 18.7 µM | UACC-257 31 µM | NCI-H226 45 µM | NCI-H522 24.5 µM | HOP-92 34.2 µM | OVCAR-5 > 100 µM | NCI-H460 31.9 µM | EKVX 63.7 µM | MDA-MB-435 41.2 µM | T47D 32.9 µM | CAKI-1 33.7 µM | ACHN 24.2 µM | RXF 393 19.8 µM | SK-MEL-2 44.8 µM | SK-MEL-5 33.3 µM | NCI/ADR-RES > 100 µM | BT-549 > 100 µM

CSC(=S)OC1CC(n2cnc3c(NC(=O)c4ccccc4)ncnc32)OC1CO[Si](C)(C)C(C)(C)C (centres undefined)
inactive: HCC 2998 9.02 µM | HCT-116 7.82 µM | CCRF-CEM 3.5 µM | UACC-257 14.7 µM | NCI-H226 14.2 µM | NCI-H522 7.18 µM | HOP-92 13.9 µM | OVCAR-5 49.4 µM | NCI-H460 11.1 µM | EKVX 25.1 µM | MDA-MB-435 6.12 µM | T47D 5 µM | CAKI-1 > 46.5 µM | ACHN 13.8 µM | RXF 393 4.35 µM | SK-MEL-2 16.2 µM | SK-MEL-5 5.45 µM | NCI/ADR-RES 9.02 µM | BT-549 16.5 µM

C/C(=C\COc1ccc2ccc(=O)oc2c1)CCC(=O)C(C)(C)O
inactive: HCC 2998 19.9 µM | HCT-116 15.6 µM | CCRF-CEM 16.4 µM | UACC-257 28 µM | NCI-H226 26.5 µM | NCI-H522 19.4 µM | HOP-92 26.4 µM | OVCAR-5 40.8 µM | NCI-H460 31.8 µM | EKVX 34 µM | MDA-MB-435 21.4 µM | T47D 29.9 µM | CAKI-1 29.2 µM | ACHN 31.3 µM | RXF 393 14.4 µM | SK-MEL-2 39.1 µM | SK-MEL-5 16.5 µM | NCI/ADR-RES 27.9 µM | BT-549 18.1 µM

O=C1OC(=O)C2CCCC3CCCC1C32 (centres undefined)
inactive: HCC 2998 > 100 µM | HCT-116 > 100 µM | CCRF-CEM > 100 µM | UACC-257 > 100 µM | NCI-H226 > 100 µM | NCI-H522 > 100 µM | HOP-92 > 100 µM | OVCAR-5 > 100 µM | NCI-H460 > 100 µM | EKVX > 100 µM | MDA-MB-435 > 100 µM | T47D > 100 µM | CAKI-1 > 100 µM | ACHN > 100 µM | RXF 393 > 100 µM | SK-MEL-2 > 100 µM | SK-MEL-5 > 100 µM | NCI/ADR-RES > 100 µM | BT-549 > 100 µM
